According to ChEMBL document CHEMBL6114971, “Design, synthesis and biological evaluation of benzo[b]thiophene analogues as novel ferroptosis inhibitor that inhibit fibrosarcoma cell proliferation” (Bioorg Med Chem, 2025):
Active and inactive are the calls of the source. No cut-off for these calls is given here.

Legend:
4T1 = assay: Antiproliferative activity against mouse 4T1 cells measured after 72 hrs by MTT assay; type: functional, cell-based; conditions: 4T1, 72 h
MGC-803 = assay: Antiproliferative activity against human MGC-803 cells measured after 72 hrs by MTT assay; type: functional, cell-based; conditions: MGC-803, 72 h
HT-1080 [1] = assay: Antiproliferative activity against human HT-1080 cells measured after 72 hrs by MTT assay; type: functional, cell-based; conditions: HT-1080, 72 h
A549 = assay: Antiproliferative activity against human A549 cells measured after 72 hrs by MTT assay; type: functional, cell-based; conditions: A549, 72 h
[2] = Selectivity ratio of IC50 for antiproliferative activity against human HT-1080 cells in presence of ferroptosis inhibitor Fer-1 to IC50 for antiproliferative activity against human HT-1080 cells; type: functional
[3] = Selectivity index, ratio of IC50 for HUVEC to IC50 for human HT-1080; type: toxicity; conditions: HUVEC versus HT-1080 cells, read-out: Ratio IC50
HT-1080 [4] = assay: Antiproliferative activity against human HT-1080 cells measured after 72 hrs in presence of ferroptosis inhibitor Fer-1 by MTT assay; type: functional, cell-based; conditions: HT-1080, 72 h
[5] = Cytotoxicity against HUVEC measured after 72 hrs by MTT assay; type: toxicity, cell-based; conditions: human
[6] = Cytotoxicity against human GES1 cells measured after 72 hrs by MTT assay; type: toxicity, cell-based
[7] = Selectivity index, ratio of IC50 for human GES1 cells to IC50 for human HT-1080; type: toxicity; conditions: GES1 cells versus HT-1080 cells, read-out: Ratio IC50
[8] = target: T1, Phospholipid hydroperoxide glutathione peroxidase GPX4 (Homo sapiens) (UniProt P36969); assay: Inhibition of GPX4 activity in human HT-1080 cells assessed as down regulation of GPX4 level at 2 uM measured after 24 hrs by Western blotting analysis; type: cell-based
T1 sequence (whole entry): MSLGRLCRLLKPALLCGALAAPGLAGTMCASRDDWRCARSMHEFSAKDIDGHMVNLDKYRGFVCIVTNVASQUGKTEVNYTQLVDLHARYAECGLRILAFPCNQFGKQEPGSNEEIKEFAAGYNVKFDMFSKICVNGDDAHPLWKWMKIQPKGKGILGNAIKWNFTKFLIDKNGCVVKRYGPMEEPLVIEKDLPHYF

HT-1080 [9] = assay: Induction of ROS generation in human HT-1080 cells assessed as intracellular ROS level at 2 uM measured after 24 hrs by DCFH-DA probe based flow cytometry (reference value: 33%); type: functional
HT-1080 [10] = assay: Reduction in GPX4 mRNA level in human HT-1080 cells at 2 uM measured after 24 hrs by qRT-PCR analysis; type: functional, cell-based

Row | Structure (SMILES) | IC50 (4T1) | IC50 (MGC-803) | IC50 (HT-1080 [1]) | IC50 (A549) | Ratio IC50 [2] | selectivity ratio [3] | IC50 (HT-1080 [4]) | IC50 at 72 h [5] | IC50 at 72 h [6] | selectivity ratio [7] | inhibition [8] | Activity (HT-1080 [9]) | Activity (HT-1080 [10])
1 | COc1ccc(N(Cc2csc3ccccc23)C(=O)CCl)cc1Cl | 7.77 µM | > 20 µM | 3.99 µM | > 20 µM |  |  |  |  |  |  |  |  | 
2 | COc1ccc(N(Cc2cc3ccccc3s2)C(=O)CCl)cc1OC | > 20 µM | 1.8 µM | 8.98 µM | 16.9 µM |  |  |  |  |  |  |  |  | 
3 | O=C(CCl)N(Cc1cc2ccccc2s1)c1ccccc1 | > 20 µM | 6.73 µM | 18 µM | 15.4 µM |  |  |  |  |  |  |  |  | 
4 | O=C(CCl)N(Cc1c[nH]c2ccccc12)c1ccccc1 | > 20 µM | 13.2 µM | 7.86 µM | > 20 µM |  |  |  |  |  |  |  |  | 
5 | COc1cc(N(Cc2ccsc2)C(=O)c2noc(C)c2[N+](=O)[O-])cc(OC)c1OC | 14.4 µM | > 20 µM | > 20 µM | > 20 µM |  |  |  |  |  |  |  |  | 
6 | COc1cc(N(Cc2ccsc2)C(=O)CCl)cc(OC)c1OC | 11.2 µM | 14.1 µM | 3.61 µM | > 20 µM | 1.74 | 4.27 | 6.3 µM | 15.4 µM | 62.3 µM | 17.3 | Active; Significant Down Regulation Observed |  | 
7 | O=C(CCl)N(Cc1ccsc1)c1ccccc1 | 7.34 µM | 19.8 µM | 4.73 µM | > 20 µM |  |  |  |  |  |  |  |  | 
8 | COc1cc(N(Cc2ccc3ccccc3n2)C(=O)c2noc(C)c2[N+](=O)[O-])cc(OC)c1OC | 12.9 µM | > 20 µM | > 20 µM | 18.9 µM |  |  |  |  |  |  |  |  | 
9 | O=C(CCl)N(Cc1ccsc1)c1ccc(F)cc1 | > 20 µM | 15.1 µM | 5.21 µM | > 20 µM |  |  |  |  |  |  |  |  | 
10 | Cc1onc(C(=O)N(Cc2csc3ccccc23)c2ccccc2)c1[N+](=O)[O-] | > 20 µM | > 20 µM | > 20 µM | > 20 µM |  |  |  |  |  |  |  |  | 
11 | COc1ccc(N(Cc2csc3ccccc23)C(=O)CCl)cc1 | > 20 µM | 16.9 µM | 14 µM | > 20 µM |  |  |  |  |  |  |  |  | 
12 | COc1cc(N(Cc2ccoc2)C(=O)c2noc(C)c2[N+](=O)[O-])cc(OC)c1OC | > 20 µM | > 20 µM | > 20 µM | > 20 µM |  |  |  |  |  |  |  |  | 
13 | COc1cc(N(Cc2ccoc2)C(=O)CCl)cc(OC)c1OC | 5.97 µM | > 20 µM | 4.21 µM | > 20 µM |  |  |  |  |  |  |  |  | 
14 | COc1ccc(N(Cc2cc3ccccc3s2)C(=O)CCl)cc1 | > 20 µM | 10.1 µM | > 20 µM | 18.3 µM |  |  |  |  |  |  | inactive |  | 
15 | COc1cc(N(Cc2csc3ccccc23)C(=O)c2noc(C)c2[N+](=O)[O-])cc(OC)c1OC | 10.2 µM | > 20 µM | > 20 µM | > 20 µM |  |  |  |  |  |  |  |  | 
16 | COc1ccc(N(Cc2c[nH]c3ccccc23)C(=O)CCl)cc1OC | > 20 µM | 7.19 µM | 15 µM | 16.7 µM |  |  |  |  |  |  |  |  | 
17 | O=C(CCl)N(Cc1csc2ccccc12)c1cccc(C(F)(F)F)c1 | > 20 µM | 7.95 µM | 11.1 µM | 19.3 µM |  |  |  |  |  |  |  |  | 
18 | O=C(CCl)N(Cc1ccccc1)Cc1csc2ccccc12 | 8.52 µM | > 20 µM | > 20 µM | > 20 µM |  |  |  |  |  |  |  |  | 
19 | O=C(CCl)N(Cc1ccoc1)c1ccccc1 | 14.1 µM | > 20 µM | 14.2 µM | > 20 µM |  |  |  |  |  |  |  |  | 

Row | Structure (SMILES) | IC50 (4T1) | IC50 (MGC-803) | IC50 (HT-1080 [1]) | IC50 (A549) | Ratio IC50 [2] | selectivity ratio [3] | IC50 (HT-1080 [4]) | IC50 at 72 h [5] | IC50 at 72 h [6] | selectivity ratio [7] | inhibition [8] | Activity (HT-1080 [9]) | Activity (HT-1080 [10])
20 | COc1cc(N(Cc2cc3ccccc3s2)C(=O)CCl)cc(OC)c1OC | > 20 µM | 2.08 µM | 3.59 µM | > 20 µM | 1.15 | 2.8 | 4.13 µM | 10.5 µM | 68.8 µM | 18.4 | Active; Significant Down Regulation Observed |  | 
21 | O=C(CCl)N(Cc1csc2ccccc12)c1ccc(F)cc1 | > 20 µM | 13.4 µM | 12.3 µM | > 20 µM |  |  |  |  |  |  |  |  | 
22 | O=C(CCl)N(Cc1cc2ccccc2[nH]1)c1ccccc1 | > 20 µM | 13.8 µM | 15.3 µM | > 20 µM |  |  |  |  |  |  |  |  | 
23 | CCCCN(Cc1cc2ccccc2s1)C(=O)CCl | 5.31 µM | > 20 µM | 3.73 µM | > 20 µM | 1.5 | 2.15 | 6 µM | 8.58 µM | 123 µM | 30.9 | Active; Significant Down Regulation Observed |  | 
24 | O=C(CCl)N(Cc1c[nH]c2ccccc12)c1ccc(F)cc1 | > 20 µM | 9.09 µM | 7.21 µM | 16 µM |  |  |  |  |  |  |  |  | 
25 | COC(=O)c1ccc([C@H]2c3[nH]c4ccccc4c3C[C@H](C(=O)OC)N2C(=O)CCl)cc1 | 18.4 µM | 12.2 µM |  | > 20 µM | 1.88 | 26.6 | 2.28 µM | 32.1 µM | 62.3 µM | 51.5 | Active | 87.6% | Active
26 | CCOc1ccccc1-n1c(C(C)N2CCN(C(=O)COc3ccc(Cl)cc3)CC2)nc2ccccc2c1=O (configuration not stated) [ERASTIN] | 12.7 µM | > 20 µM | 3.54 µM | > 20 µM |  |  |  |  |  |  |  |  | 
27 | COc1ccc(N(Cc2csc3ccccc23)C(=O)CCl)cc1OC | > 20 µM | 2.42 µM | 4.22 µM | 15.2 µM |  |  |  |  |  |  |  |  | 
28 | O=C(CCl)N(Cc1cc2ccccc2s1)c1ccc(F)cc1 | > 20 µM | 7.09 µM | 10.4 µM | > 20 µM |  |  |  |  |  |  |  |  | 
29 | Cc1onc(C(=O)N(Cc2csc3ccccc23)c2ccc(F)cc2)c1[N+](=O)[O-] | 10.2 µM | > 20 µM | > 20 µM | > 20 µM |  |  |  |  |  |  |  |  | 
30 | O=C(CCl)N(Cc1cc2ccccc2s1)c1cccc(C(F)(F)F)c1 | 17.8 µM | 12 µM | 13.6 µM | > 20 µM |  |  |  |  |  |  |  |  | 
31 | O=C(CCl)N(Cc1cc2ccccc2[nH]1)c1ccc(F)cc1 | 12.4 µM | 7.32 µM | 9.26 µM | > 20 µM |  |  |  |  |  |  |  |  | 
32 | COc1ccc(N(Cc2csc3ccccc23)C(=O)c2noc(C)c2[N+](=O)[O-])cc1OC | 3.48 µM | > 20 µM | 5.25 µM | > 20 µM | 2.98 | 6.06 | 15.6 µM | 31.8 µM | 87.3 µM | 16.6 | Active; Significant Down Regulation Observed |  | 
33 | O=C(CCl)N(Cc1csc2ccccc12)c1ccccc1 | > 20 µM | 10.3 µM | 11.2 µM | > 20 µM |  |  |  |  |  |  |  |  | 
34 | COc1cc(N(C)Cc2csc3ccccc23)cc(OC)c1OC |  |  |  |  |  |  |  |  |  |  |  |  | inactive
35 | COc1ccc(N(Cc2cc3ccccc3[nH]2)C(=O)CCl)cc1 | 18.8 µM | > 20 µM | 11.8 µM | > 20 µM |  |  |  |  |  |  |  |  | 
36 | O=C(CCl)N(Cc1ccoc1)c1ccc(F)cc1 | 12.1 µM | 16.7 µM | 6.06 µM | > 20 µM |  |  |  |  |  |  |  |  | 
37 | COc1ccc(N(Cc2c[nH]c3ccccc23)C(=O)CCl)cc1 | 15.8 µM | 11.7 µM | 12.4 µM | > 20 µM |  |  |  |  |  |  |  |  | 
